Laboratory results as given in patent US11083707B2, “Substituted indoline derivatives as dengue viral replication inhibitors” (JANSSEN PHARMACEUTICALS, INC., priority 2017, dated 2021).

Columns and labels:
[1] = in vitro; details: African green monkey
[2] = test system: DENV-2 16681 strain; experiment: DENV-2 antiviral assay (eGFP fluorescence, Vero cells); assay type: cell-based, Dengue virus; details: Dengue virus, DENV2, Vero, 72 h, DENV-2 16681 eGFP, MOI 0.5, 3 days

In the case of COc1cc(NC(C(=O)N2CCc3c(C)cc(OC(F)(F)F)cc32)c2ccc(Cl)cc2OCCCC(=O)O)cc(-n2cncn2)c1 (racemic) [Compound 16, 4-(5-chloro-2-(1-((3-methoxy-5-(1H-1,2,4-triazol-1-yl)phenyl)amino)-2-(4-methyl-6-(trifluoromethoxy)indolin-1-yl)-2-oxoethyl)phenoxy)butanoic acid], the CC50 [1] is reported as 11 µM, the melting point is reported as 214 °C and the EC50 [2] is reported as 0.00011 µM.
